*: point of attachment. NHNH2 = NN*
What was measured:
Format in all cases: cell-based
[1] = tested on: Hela cells expressing EGFP; assay: Cas9-RNP delivery against EGFP (gene editing, plate reader), HeLa; conditions: for % GFP silencing due to gene editing (Cas9-RNP): HeLa
Experimental: (§1) To generate an EGFP expressing HeLa cell line, HeLa cells were transfected with EGFP pDNA (pEGFP-C1, Clontech) and stable transfectants were selected with 400 μg/mL of G-418 (Millipore). Green clones were selected by epifluorescence microscopy and tested for EGFP expression stability through several passages. […] All other EGFP-expressing cell lines were obtained in a similar way from parent non-EGFP-expressing cell lines.
(§2) Cells expressing EGFP were seeded in a 96 well plate the day before the experiment at a concentration of 50,000 cell/mL (100 μL/w) in DMEM+10% FBS+1% Gln-Abt. For robotic library screening, the delivery of Cas9-RNP against EGFP (RNP designed to knock-out the gene encoding for the enhanced green fluorescent protein (EGFP)) was performed. For RNP assembly, 9.2 μL of crRNA and 9.2 μL of tracrRNA were mixed in 211.6 μL of Nuclease-Free Duplex Buffer (IDT), incubated for 5 min at 95° C. and slowly cooled at rt (see I. Lostalé-Seijo, et al. Peptide/Cas9 nanostructures for ribonucleoprotein cell membrane transport and gene edition, Chem. Sci., 2017). Cas9 protein was dissolved in DMEM at a final concentration of 4 μM and equal volumes of the RNA complex and Cas9 were mixed and incubated for 5 min at rt. 75 μL of the corresponding amphiphile concentrations were added to 5 μL of RNP at 2 μM. The mixture was shaken for 30 min at room temperature before the addition to the cells. The cell medium was aspirated, and cells were washed twice with PBS. Cells were covered with 30 μL of DMEM and 20 μL of the RNP/amphiphile complexes were added to the cells (final peptide concentrations=2.5, 5 and 10 μM; final Cas9-RNP concentration=50 nM) and incubated for 4 h. After the incubation, the medium was replaced by 100 μL of fresh DMEM supplemented with 10% FBS. The total EGFP fluorescence was quantified after 72 h in a plate reader (FIG. 2, Table 1 (right) and Table 6). All experiments were done in triplicate.
(§3) Tables 1-7: RLuc (pDNA) or EGFP (mRNA) expression levels were normalized to Lipofectamine reagents (value=1) and expressed as fold-times signal increase. In the case of siRNA, the siRNA treated cells fluorescence was compared with siMOCK control fluorescence, while Cas9-RNP mediated knockout was measured against the fluorescence of untreated cells. In both siRNA and Cas9-RNP, values are expressed as % fluorescence reduction. Amphiphile concentration was 5 μM in all cases. All experiments were performed in triplicate.
(§4) Tables 26-31 show the mean (triplicates) percentage of gene editing, accounted by GFP fluorescence intensity decrease (% of reduction), measured after the transfection of Cas9-RNP by different amphiphiles at different concentrations in a variety of cell lines. Background values, accounted by untreated control cells, were subtracted for processing.

[2] = tested on: ARPE19 cells expressing EGFP; assay: Cas9-RNP delivery against EGFP (gene editing, plate reader), ARPE19
Experimental: as §1
as §2, with “triplicate. […]” for “triplicate.”
as §4

[3] = tested on: A549 cells expressing EGFP; assay: EGFP-targeting siRNA delivery (GFP silencing vs siMOCK), A549; conditions: for siRNA % fluorescence reduction vs siMOCK: A549, amphiphile 5 μM, hydrophobic tail; for percentage of GFP-silencing relative to siMOCK: A549 cells
Experimental: as §1
Cells expressing EGFP were seeded in a 96 well plate the day before the experiment at a concentration of 50,000 cell/mL (100 μL/w) in DMEM+10% FBS+1% Gln-Abt. For robotic library screening, the delivery of an EGFP-targeting siRNA (EGFP: enhanced green fluorescent protein, Ambion® Silencer® GFP Positive Control siRNA (siGFP) (AM4626)) in six different cell lines expressing EGFP was performed. […] The mixture was shaken for 30 min at room temperature (rt) before the addition to the cells. The cell medium was aspirated, and cells were washed twice with PBS. Finally, 50 μL of the solution of siRNA/amphiphile complexes were added to the cells and incubated for 4 h. After transfection, the medium was replaced by 100 μL of fresh DMEM supplemented with 10% FBS. The fluorescence knockdown was quantified after 72 h in a plate reader, by comparison with cells transfected with a non-targeting siRNA control (siMOCK, Silencer™ Negative Control No. 1 siRNA (siMOCK) (AM4611)). EGFP knockdown was compared with Lipofectamine® RNAiMAX silencing efficiency (30-60% depending on cell line, defined with a numeric value in the below tables). All experiments were done in triplicate.
as §3
as §4, with “20-25” for “26-31”, “GFP-silencing,” for “gene editing,”, “by” for “by GFP”, “relative to a non-targeting siRNA (siMOCK) control,” for “(% of reduction),”, “siRNA” for “Cas9-RNP”

[4] = Petroselinyl, 10 μM, Hela cells
[5] = Petroselinyl, 15 μM, Hela cells

Substance	percentage of gene editing, GFP fluorescence intensity decrease (% of reduction) ([1]; Dodecanal, 5 μM, Hela cells) [%]	percentage of gene editing, GFP fluorescence intensity decrease (% of reduction) ([1]; Dodecanal, 10 μM, HeLa cells) [%]	percentage of gene editing, GFP fluorescence intensity decrease (% of reduction) ([1]; Dodecanal, 15 μM, Hela cells) [%]	percentage of gene editing, GFP fluorescence intensity decrease (% of reduction) ([1]; Myristoleyl, 5 μM, HeLa cells) [%]	percentage of gene editing, GFP fluorescence intensity decrease (% of reduction) ([1]; Myristoleyl, 15 μM, Hela cells) [%]	percentage of gene editing, GFP fluorescence intensity decrease (% of reduction) [1, 4] [%]	percentage of gene editing, GFP fluorescence intensity decrease (% of reduction) [1, 5] [%]	percentage of gene editing, GFP fluorescence intensity decrease (% of reduction) ([2]; Dodecanal, 5 μM) [%]	percentage of gene editing, GFP fluorescence intensity decrease (% of reduction) ([2]; Dodecanal, 15 μM) [%]	percentage of gene editing, GFP fluorescence intensity decrease (% of reduction) ([2]; Oleyl, 10 μM) [%]	percentage of gene editing, GFP fluorescence intensity decrease (% of reduction) ([2]; Palmitoleyl, 15 μM) [%]	percentage of gene editing, GFP fluorescence intensity decrease (% of reduction) ([2]; Petroselinyl, 15 μM) [%]	percentage of GFP-silencing relative to siMOCK ([3]; Dodecanal, 5 μM) [%]	percentage of GFP-silencing relative to siMOCK ([3]; Dodecanal, 10 μM) [%]	percentage of GFP-silencing relative to siMOCK ([3]; Dodecanal, 15 μM) [%]	percentage of GFP-silencing relative to siMOCK ([3]; Myristoleyl, 5 μM) [%]	percentage of GFP-silencing relative to siMOCK ([3]; Myristoleyl, 10 μM) [%]	percentage of GFP-silencing relative to siMOCK ([3]; Myristoleyl, 15 μM) [%]	percentage of GFP-silencing relative to siMOCK ([3]; Oleyl, 10 μM) [%]	percentage of GFP-silencing relative to siMOCK ([3]; Oleyl, 15 μM) [%]	further results
Ac-RK*LRRK*LRK*-NH2 (Ac-RK(NHNH2)LRRK(NHNH2)LRK(NHNH2)-NH2; not fully specified; printed as Ac-RK*LRRK*LRK*-NH2; also: K*2,K*6,K*9: native or modified lysine (ε-amide to a linker)) [Peptide 9.3]	25	61	80	14	81	49	77	5	−14	23	8	−2	35	35	55	34	58	23	32	28	% GFP silencing due to gene editing (Cas9-RNP) ([1]; 5 μM, Dod tail): 80%; % GFP silencing due to gene editing (Cas9-RNP) ([1]; 5 μM, Pal tail): 77%; percentage of gene editing, GFP fluorescence intensity decrease (% of reduction) ([1]; Oleyl, 5 μM, HeLa cells): 11%; percentage of gene editing, GFP fluorescence intensity decrease (% of reduction) ([1]; Oleyl, 10 μM, HeLa cells): 26%; percentage of gene editing, GFP fluorescence intensity decrease (% of reduction) ([1]; Palmitoleyl, 10 μM, HeLa cells): 44%; percentage of gene editing, GFP fluorescence intensity decrease (% of reduction) ([1]; Palmitoleyl, 15 μM, Hela cells): 77%; percentage of gene editing, GFP fluorescence intensity decrease (% of reduction) ([2]; Myristoleyl, 15 μM): −25%; percentage of gene editing, GFP fluorescence intensity decrease (% of reduction) ([2]; Oleyl, 15 μM): 22%; percentage of gene editing, GFP fluorescence intensity decrease (% of reduction) ([2]; Palmitoleyl, 5 μM): 3%; siRNA % fluorescence reduction vs siMOCK ([3]; palmitoleyl hydrophobic tail): 75%; percentage of GFP-silencing relative to siMOCK ([3]; Palmitoleyl, 5 μM): 42%; percentage of GFP-silencing relative to siMOCK ([3]; Palmitoleyl, 10 μM): 75%; percentage of GFP-silencing relative to siMOCK ([3]; Palmitoleyl, 15 μM): 64%; percentage of GFP-silencing relative to siMOCK ([3]; Petroselinyl, 5 μM): 6%; percentage of GFP-silencing relative to siMOCK ([3]; Petroselinyl, 10 μM): 58%; percentage of GFP-silencing relative to siMOCK ([3]; Petroselinyl, 15 μM): 75%
Ac-RK*LRRLLRK*-NH2 (Ac-RK(NHNH2)LRRLLRK(NHNH2)-NH2; not fully specified; printed as Ac-RK*LRRLLRK*-NH2; also: K*2,K*9: native or modified lysine (ε-amide to a linker)) [Peptide 9.2]	6	14	47	−12	52			−2	−17				32	29	16	−1	−6	−14			
Ac-RRHK*RLK*RRLK*RL-NH2 (Ac-RRHK(NHNH2)RLK(NHNH2)RRLK(NHNH2)RL-NH2; not fully specified; printed as Ac-RRHK*RLK*RRLK*RL-NH2; also: K*4,K*7,K*11: native or modified lysine (ε-amide to a linker)) [13(Leu-His)]				16		74	81			−6	6	22		10	55		10	14	20	17	% GFP silencing due to gene editing (Cas9-RNP) ([1]; 5 μM, Myr tail): 73%; percentage of gene editing, GFP fluorescence intensity decrease (% of reduction) ([1]; Myristoleyl, 10 μM, HeLa cells): 73%; percentage of gene editing, GFP fluorescence intensity decrease (% of reduction) ([1]; Petroselinyl, 5 μM, HeLa cells): 39%; percentage of gene editing, GFP fluorescence intensity decrease (% of reduction) ([2]; Palmitoleyl, 10 μM): −13%; siRNA % fluorescence reduction vs siMOCK [3]: 76%; percentage of GFP-silencing relative to siMOCK ([3]; Oleyl, 5 μM): 29%; percentage of GFP-silencing relative to siMOCK ([3]; Palmitoleyl, 10 μM): 54%; percentage of GFP-silencing relative to siMOCK ([3]; Palmitoleyl, 15 μM): 50%; percentage of GFP-silencing relative to siMOCK ([3]; Petroselinyl, 10 μM): 38%; percentage of GFP-silencing relative to siMOCK ([3]; Petroselinyl, 15 μM): 76%

Source: patent US20250304623A1, “PEPTIDES FOR INTRACELLULAR DELIVERY” (UNIVERSIDADE DE SANTIAGO DE COMPOSTELA, priority 2022, published 2025)
